Test results: patent publication US20180162844A1, “CYCLOPROPANE DERIVATIVE AND DRUG CONTAINING SAME” (EA PHARMA CO., LTD., priority 2015, published 2018)

These compounds were tested against T1, human TRPA1 (Homo sapiens, UniProt O75762) (assay: Measurement of TRPA1 antagonist activity (intracellular calcium increase, allylisothiocyanate stimulation, 293T cells transfected with human TRPA1 expression plasmid)). Conditions: Comparative Examples (Table 8-2); 293T cells expressing human TRPA1, allylisothiocyanate stimulation, FLIPR Calcium4, test substance added 10 min before AITC; read-out: hTRPA1 IC50.
T1 construct: full-length human TRPA1 gene was amplified; expressed in transfected cells; host or cells: Human embryonic kidney-derived 293T cells, transient transfection with pcDNA3.1/zeo(+) human TRPA1 expression plasmid
Type: cell-based
Method: Experimental Example 1: Measurement of TRPA1 antagonist Activity
Human TRPA1 Expression Plasmid
Using cDNA encoding human TRPA1 (GenBank accession No. NM_007332) (manufactured by Kazusa DNA Research Institute, item No.: FHC07217) as a template, primer 1 (SEQ ID NO: 1) and primer 2 (SEQ ID NO: 2), PCR by PfuUltra High-Fidelity DNA Polymerase (Stratagene) was performed, and full-length human TRPA1 gene was amplified.
A recognition site (underlined) of restriction enzyme HindIII was added to the 5′ end of human TRPA1 gene, and XbaI site (underlined) was added to the 3′ end of human TRPA1 gene, and GTT of the template sequence was changed to termination codon TAG (bold). The obtained double stranded DNA was enzyme-digested with HindIII and XbaI, and introduced into a multicloning site of expression plasmid pcDNA3.1/zeo(+) (manufactured by Invitrogen) to give a human TRPA1 expression plasmid.
Human embryonic kidney-derived 293T cells were cultured in Dulbecco's Modified Eagle Medium containing 10% fetal bovine serum, 10 unit penicillin, and 10 μg streptomycin. One day before assay, 3×10^6 of 293T cells were plated on a petri dish having a diameter of 10 cm, and cultured in a CO2 incubator for 24 hr. OPTI-MEM I Reduced Serum Media (Invitrogen). (600 μL), Mirus TransIT-293 (Mirus Bio) (18 μL), and human TRPA1 expression plasmid (6 μg) were mixed, the total amount of the mixture was added to the cells on the petri dish to allow for gene transfer. The cells were recovered about for 8 hr later, plated on a poly-D-lysine coated 384 well black/clear bottom plate at 12,000 cells/well, and cultured overnight.
Measurement of Intracellular Calcium Increase
The medium was removed from the 384 well plate, calcium indicator (Molecular Device, trade name: FLIPR Calcium4 Assay Kit) dissolved in HBSS (Thermo Fisher Scientific) (pH 7.2) containing 20 mM HEPES was added (38 μL/well), and the cells were stained in a CO2 incubator for 1 hr. The 384 well plate was stood at room temperature for not less than 15 min, set on FDSS7000 (Hamamatsu Photonics K.K.), and a test substance solution was added at 10 μL/well. After 10 min, allylisothiocyanate solution (12 μL/well) was added, the relative fluorescence intensity was measured for 5 min after addition of the allylisothiocyanate solution.
Preparation of Test Substance Solution and Allylisothiocyanate Solution
A test substance solution was prepared to have a composition of HBSS (Thermo Fisher Scientific) (pH 7.2) containing 0.48% dimethyl sulfoxide, a test substance at 4.8-fold concentration of the evaluation concentration, 0.1% bovine serum albumin and 20 mM HEPES. An allylisothiocyanate solution was prepared to have a composition of HBSS (Thermo Fisher Scientific) (pH 7.2) containing 0.1% dimethyl sulfoxide, 100 μM allylisothiocyanate, 0.1% bovine serum albumin and 20 mM HEPES.
Calculation of Antagonist Activity
The activity rate of a test substance at each concentration was calculated, wherein the relative fluorescence intensity change of a well free of a test substance and containing allylisothiocyanate is 100% activity rate, and the relative fluorescence intensity change of a well free of a test substance and allylisothiocyanate is 0% activity rate. The inhibitory rate of a test substance at each concentration was calculated by subtracting the activity rate of the test substance from 100% activity rate, and the concentration of a test substance showing 50% inhibitory rate was calculated as IC50 from the sigmoid approximate curve by XLFit (idbs).

T1 sequence (O75762 whole entry): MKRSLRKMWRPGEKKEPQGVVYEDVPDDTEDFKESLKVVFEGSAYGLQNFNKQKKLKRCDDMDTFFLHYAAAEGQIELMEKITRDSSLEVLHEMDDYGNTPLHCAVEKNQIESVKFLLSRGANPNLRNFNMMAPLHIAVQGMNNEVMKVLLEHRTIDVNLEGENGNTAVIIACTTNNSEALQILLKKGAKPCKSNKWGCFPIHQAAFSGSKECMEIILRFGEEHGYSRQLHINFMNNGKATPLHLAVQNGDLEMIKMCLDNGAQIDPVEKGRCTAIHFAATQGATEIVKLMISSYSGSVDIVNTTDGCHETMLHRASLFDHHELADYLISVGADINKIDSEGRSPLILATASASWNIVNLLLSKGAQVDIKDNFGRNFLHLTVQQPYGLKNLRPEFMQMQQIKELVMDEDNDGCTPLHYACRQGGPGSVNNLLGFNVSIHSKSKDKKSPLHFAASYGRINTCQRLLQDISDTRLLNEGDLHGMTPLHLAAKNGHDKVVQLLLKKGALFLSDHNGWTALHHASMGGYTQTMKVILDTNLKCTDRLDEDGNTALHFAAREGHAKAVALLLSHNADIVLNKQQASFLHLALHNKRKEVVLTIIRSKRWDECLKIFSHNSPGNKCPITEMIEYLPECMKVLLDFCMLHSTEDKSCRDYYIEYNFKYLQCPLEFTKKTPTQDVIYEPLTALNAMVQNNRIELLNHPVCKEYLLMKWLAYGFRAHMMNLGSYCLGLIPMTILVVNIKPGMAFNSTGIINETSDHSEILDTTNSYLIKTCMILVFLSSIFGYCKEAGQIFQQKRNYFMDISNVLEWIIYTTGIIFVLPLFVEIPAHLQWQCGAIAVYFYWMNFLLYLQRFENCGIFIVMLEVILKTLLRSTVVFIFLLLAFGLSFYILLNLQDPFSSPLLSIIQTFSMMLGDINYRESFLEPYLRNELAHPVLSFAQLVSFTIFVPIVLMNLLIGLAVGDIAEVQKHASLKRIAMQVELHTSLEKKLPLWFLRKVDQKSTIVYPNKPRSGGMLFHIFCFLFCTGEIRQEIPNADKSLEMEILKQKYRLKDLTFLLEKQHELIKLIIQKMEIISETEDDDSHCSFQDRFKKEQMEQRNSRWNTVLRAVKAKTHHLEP

Question: `O=C(NCc1cc(-c2ccc(C(F)(F)F)cc2)nc(N2CCCC2)c1)C1(NS(=O)(=O)c2ccc(F)cc2)CC1` [Comparative Example 2, 1-[(4-fluorophenyl)sulfonylamino]-N-[[2-pyrrolidin-1-yl-6-[4-(trifluoromethyl)phenyl]-4-pyridyl]methyl]cyclopropanecarboxamide, reference compound] was tested. Which IC50 did it give?
Answer: > 1000 nM

Question: `CC(C)N(C1(C(=O)NCc2cc(-c3ccc(C(F)(F)F)nc3)ncn2)CC1)S(=O)(=O)c1ccc(F)cc1` [Comparative Example 1, 1-[(4-fluorophenyl)sulfonyl-isopropyl-amino]-N-[[6-[6-(trifluoromethyl)-3-pyridyl]pyrimidin-4-yl]methyl]cyclopropanecarboxamide, reference compound] was tested. Which IC50 did it give?
Answer: 180 nM

Question: How did the IC50 turn out when `O=C(NCc1cc(-c2ccc(C(F)(F)F)cc2)nc(N2CCCC2)c1)C1(NS(=O)(=O)c2ccco2)CC1` [Comparative Example 3, 1-(2-furylsulfonylamino)-N-[[2-pyrrolidin-1-yl-6-[4-(trifluoromethyl)phenyl]-4-pyridyl]methyl]cyclopropanecarboxamide, reference compound] was run?
Answer: > 1000 nM

Same assay, conditions: Examples (Table 8-1); 293T cells expressing human TRPA1, allylisothiocyanate stimulation, FLIPR Calcium4, test substance added 10 min before AITC; read-out: hTRPA1 IC50

Question: With `O=C(NCc1cc(-c2ccc(C(F)(F)F)cn2)cnn1)C1(NS(=O)(=O)c2cc3cc(F)ccc3o2)CC1` [Example 17, 1-[(5-fluorobenzofuran-2-yl)sulfonylamino]-N-[[5-[5-(trifluoromethyl)-2-pyridyl]pyridazin-3-yl]methyl]cyclopropanecarboxamide] as the compound, how does the IC50 read?
Answer: 240 nM

Question: With `O=C(NCc1ccnc(-c2cnc(C(F)(F)F)nc2)c1)C1(NS(=O)(=O)c2cc3cc(F)ccc3o2)CC1` [Example 2, 1-[(5-fluorobenzofuran-2-yl)sulfonylamino]-N-[[2-[2-(trifluoromethyl)pyrimidin-5-yl]-4-pyridyl]methyl]cyclopropane-carboxamide] as the compound, how does the IC50 read?
Answer: 120 nM

Question: For `O=C(NCc1cc(-c2ccc(C(F)(F)F)cn2)ccn1)C1(NS(=O)(=O)c2cc3ccccc3o2)CC1` [Example 22, 1-(benzofuran-2-ylsulfonylamino)-N-[[4-[5-(trifluoromethyl)-2-pyridyl]-2-pyridyl]methyl]-cyclopropanecarboxamide], which IC50 is on record?
Answer: 130 nM

Question: Which IC50 does the source give for `O=C(NCc1cc(-c2ccc(C(F)(F)F)nc2)ncn1)C1(NS(=O)(=O)c2cc3cc(F)ccc3o2)CC1` [Example 12, 1-[(5-fluorobenzofuran-2-yl)sulfonylamino]-N-[[6-[6-(trifluoromethyl)-3-pyridyl]pyrimidin-4-yl]methyl]cyclopropanecarboxamide] here?
Answer: 30 nM

Question: How did the IC50 turn out when `CN(C)c1nc(CNC(=O)C2(NS(=O)(=O)c3cc4cc(F)ccc4o3)CC2)cc(-c2ccc(C(F)(F)F)cc2)n1` [Example 19] was run?
Answer: 38 nM

Question: For `O=C(NCc1cc(-c2ccc(C(F)(F)F)cn2)ncn1)C1(NS(=O)(=O)c2cc3cc(F)ccc3o2)CC1` [Example 13, 1-[(5-fluorobenzofuran-2-yl)sulfonylamino]-N-[[6-[5-(trifluoromethyl)-2-pyridyl]pyrimidin-4-yl]methyl]cyclopropanecarboxamide], which IC50 is on record?
Answer: 110 nM

Question: `O=C(NCc1cc(-c2ccc(C(F)(F)F)cc2)nc(N2CCCC2)c1)C1(NS(=O)(=O)c2cc3ccccc3o2)CC1` [Example 28, 1-(benzofuran-2-ylsulfonylamino)-N-[[2-pyrrolidin-1-yl-6-[4-(trifluoromethyl)phenyl]-4-pyridyl]methyl]-cyclopropanecarboxamide] was tested. Which IC50 did it give?
Answer: 260 nM

Question: `O=C(NCc1cc(-c2ccc(C(F)(F)F)cc2)ncn1)C1(NS(=O)(=O)c2cc3cnccc3o2)CC1` [Example 26, 1-(furo[3,2-c]pyridin-2-ylsulfonylamino)-N-[[6-[4-(trifluoromethyl)phenyl]pyrimidin-4-yl]methyl]cyclopropanecarboxamide] was tested. Which IC50 did it give?
Answer: 45 nM

Question: How did the IC50 turn out when `O=C(NCc1cc(-c2ccc(C(F)(F)F)cc2O)ncn1)C1(NS(=O)(=O)c2cc3cc(F)ccc3o2)CC1` [Example 20, 1-[(5-fluorobenzofuran-2-yl)sulfonylamino]-N-[[6-[2-hydroxy-4-(trifluoromethyl)-phenyl]pyrimidin-4-yl]methyl]cyclopropanecarboxamide] was run?
Answer: 23 nM

Question: For `CN(C1(C(=O)NCc2cc(-c3ccc(C(F)(F)F)cn3)ccn2)CC1)S(=O)(=O)c1cc2cc(F)ccc2o1` [Example 29, 1-[(5-fluorobenzofuran-2-yl)sulfonyl-methyl-amino]-N-[[4-[5-(trifluoromethyl)-2-pyridyl]-2-pyridyl]methyl]-cyclopropanecarboxamide], which IC50 is on record?
Answer: 1.2 nM

Question: With `O=C(NCc1cc(-c2ccc(C(F)(F)F)cc2)ncn1)C1(NS(=O)(=O)c2cc3ccccc3o2)CC1` [Example 21, 1-(benzofuran-2-ylsulfonylamino)-N-[[6-[4-(trifluoromethyl)phenyl]pyrimidin-4-yl]methyl]cyclopropanecarboxamide] as the compound, how does the IC50 read?
Answer: 77 nM

Question: Which IC50 does the source give for `O=C(NCc1cnnc(-c2ccc(C(F)(F)F)nc2)c1)C1(NS(=O)(=O)c2cc3cc(F)ccc3o2)CC1` [Example 16, 1-[(5-fluorobenzofuran-2-yl)sulfonylamino]-N-[[6-[6-(trifluoromethyl)-3-pyridyl]pyridazin-4-yl]methyl]cyclopropanecarboxamide] here?
Answer: 990 nM

Question: How did the IC50 turn out when `O=C(NCc1cc(-c2ccc(C(F)(F)F)cc2)nc(N2CCCC2)c1)C1(NS(=O)(=O)c2cc3cc(F)ccc3o2)CC1` [Example 27, 1-[(5-fluorobenzofuran-2-yl)sulfonylamino]-N-[[2-pyrrolidin-1-yl-6-[4-(trifluoromethyl)phenyl]-4-pyridyl]methyl]-cyclopropanecarboxamide] was run?
Answer: 86 nM

Question: `O=C(NCc1cc(-c2ncc(C(F)(F)F)cn2)ccn1)C1(NS(=O)(=O)c2cc3cc(F)ccc3o2)CC1` [Example 6, 1-[(5-fluorobenzofuran-2-yl)sulfonylamino]-N-[[4-[5-(trifluoromethyl)pyrimidin-2-yl]-2-pyridyl]methyl]cyclopropane-carboxamide] was tested. Which IC50 did it give?
Answer: 230 nM

Question: With `O=C(NCc1cc(-c2cnc(C(F)(F)F)nc2)ncn1)C1(NS(=O)(=O)c2cc3cc(F)ccc3o2)CC1` [Example 14, 1-[(5-fluorobenzofuran-2-yl)sulfonylamino]-N-[[6-[2-(trifluoromethyl)pyrimidin-5-yl]pyrimidin-4-yl]methyl]cyclopropanecarboxamide] as the compound, how does the IC50 read?
Answer: 47 nM

Question: With `O=C(NCc1cc(-c2cnc(C(F)(F)F)nc2)ccn1)C1(NS(=O)(=O)c2cc3cc(F)ccc3o2)CC1` [Example 5, 1-[(5-fluorobenzofuran-2-yl)sulfonylamino]-N-[[4-[2-(trifluoromethyl)pyrimidin-5-yl]-2-pyridyl]methyl]cyclopropane-carboxamide] as the compound, how does the IC50 read?
Answer: 260 nM

Question: Which IC50 does the source give for `CC(C)N(C1(C(=O)NCc2cc(-c3ccc(C(F)(F)F)nc3)ncn2)CC1)S(=O)(=O)c1cc2ccccc2o1` [Example 25, 1-[benzofuran-2-ylsulfonyl(isopropyl)amino]-N-[[6-[6-(trifluoromethyl)-3-pyridyl]pyrimidin-4-yl]methyl]cyclopropanecarboxamide] here?
Answer: 8.1 nM

Question: `O=C(NCc1cncc(-c2ccc(C(F)(F)F)cn2)c1)C1(NS(=O)(=O)c2cc3cc(F)ccc3o2)CC1` [Example 10, 1-[(5-fluorobenzofuran-2-yl)sulfonylamino]-N-[[5-[5-(trifluoromethyl)-2-pyridyl]-3-pyridyl]methyl]cyclopropane-carboxamide] was tested. Which IC50 did it give?
Answer: 110 nM

Question: How did the IC50 turn out when `O=C(NCc1cc(-c2ccc(C(F)(F)F)cn2)ccn1)C1(NS(=O)(=O)c2cc3cc(F)ccc3o2)CC1` [Example 4, 1-[(5-fluorobenzofuran-2-yl)sulfonylamino]-N-[[4-[5-(trifluoromethyl)-2-pyridyl]-2-pyridyl]methyl]cyclopropane-carboxamide] was run?
Answer: 22 nM
